Earlier results, collected in patent publication US20150258192A1, “COMPOSITIONS AND METHODS FOR PREVENTING OR TREATING CHRONIC LUNG ALLOGRAFT DYSFUNCTION (CLAD) AND IDIOPATHIC PULMONARY FIBROSIS (IPF)” (priority 2014, published 2015).

Tests used:
PKC = conditions: 1 μM; cited from earlier work
[1] = system: Ca^2+/calmodulin-dependent protein kinase II (CaMKII); conditions: cited from earlier work
CaMKIV = CaMKIV (Homo sapiens, UniProt Q16566); conditions: 1 μM; cited from earlier work
PKA = conditions: 1 μM; cited from earlier work

Chain of CaMKIV (Q16566 whole entry, species assumed): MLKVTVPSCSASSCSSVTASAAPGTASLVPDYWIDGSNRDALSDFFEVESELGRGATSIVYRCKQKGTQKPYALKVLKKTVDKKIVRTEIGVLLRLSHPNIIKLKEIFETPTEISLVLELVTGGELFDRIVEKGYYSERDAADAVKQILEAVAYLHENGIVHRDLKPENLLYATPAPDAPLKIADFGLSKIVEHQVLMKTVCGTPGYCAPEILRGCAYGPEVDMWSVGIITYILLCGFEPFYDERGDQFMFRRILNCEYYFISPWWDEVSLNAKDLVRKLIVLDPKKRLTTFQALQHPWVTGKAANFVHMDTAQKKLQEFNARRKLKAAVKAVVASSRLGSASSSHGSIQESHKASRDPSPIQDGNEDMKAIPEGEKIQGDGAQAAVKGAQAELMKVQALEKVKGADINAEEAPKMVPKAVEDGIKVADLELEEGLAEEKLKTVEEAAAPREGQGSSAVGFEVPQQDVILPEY

## autocamtide-2 related inhibitory peptide [AIP]
PKC
  PKC activity: not affected
[1]; 1 μM
  CaMKII activity: inhibited completely
[1]
  IC50: 100 nM
CaMKIV
  CaMKIV activity: not affected
PKA
  PKA activity: not affected
